Results on 13 compounds are retold here after publication PMC12136037, “Type II kinase inhibitors that target Parkinson’s disease–associated LRRK2” (Science Advances, 2025).

Common to all, as to test: DSF 100 kinase selectivity screen;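 further: compound tested at 20 µM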
Common to all, as to assay type: binding

Assay [1] addresses T1, ~100 representative kinases (Homo sapiens, UniProt Q9H2X6).
T1 construct: Recombinant protein kinase domains with a concentration of 2 μM
Conditions: protein HIPK2; average of three replicates. The gist of the method:
(§1)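 Each kinase domain, at 2 μM, is mixed with 20 μM test compound and SYPRO Orange in Hepes (20 mM, pH 7.5) with 500 mM NaCl. Temperature is then raised at 3°C/min and fluorescence-monitored unfolding yields the melting temperature change, ΔTm in degrees Celsius.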

Assay [2] deals with T2, ~100 representative kinases (Homo sapiens, UniProt P21802).
T2 construct: Recombinant protein kinase domains with a concentration of 2 μM
Conditions: protein FGFR2; average of three replicates. The gist of the method:
as §1

Assay [3] deals with T3, ~100 representative kinases (Homo sapiens, UniProt Q15375).
T3 construct: Recombinant protein kinase domains with a concentration of 2 μM
Conditions: Protein EPHA7; average of three replicates. The gist of the method:
as §1

For assay [4], the target named is T4, ~100 representative kinases (Homo sapiens, UniProt O14936).
T4 construct: Recombinant protein kinase domains with a concentration of 2 μM
T4 sequence (O14936 1-926): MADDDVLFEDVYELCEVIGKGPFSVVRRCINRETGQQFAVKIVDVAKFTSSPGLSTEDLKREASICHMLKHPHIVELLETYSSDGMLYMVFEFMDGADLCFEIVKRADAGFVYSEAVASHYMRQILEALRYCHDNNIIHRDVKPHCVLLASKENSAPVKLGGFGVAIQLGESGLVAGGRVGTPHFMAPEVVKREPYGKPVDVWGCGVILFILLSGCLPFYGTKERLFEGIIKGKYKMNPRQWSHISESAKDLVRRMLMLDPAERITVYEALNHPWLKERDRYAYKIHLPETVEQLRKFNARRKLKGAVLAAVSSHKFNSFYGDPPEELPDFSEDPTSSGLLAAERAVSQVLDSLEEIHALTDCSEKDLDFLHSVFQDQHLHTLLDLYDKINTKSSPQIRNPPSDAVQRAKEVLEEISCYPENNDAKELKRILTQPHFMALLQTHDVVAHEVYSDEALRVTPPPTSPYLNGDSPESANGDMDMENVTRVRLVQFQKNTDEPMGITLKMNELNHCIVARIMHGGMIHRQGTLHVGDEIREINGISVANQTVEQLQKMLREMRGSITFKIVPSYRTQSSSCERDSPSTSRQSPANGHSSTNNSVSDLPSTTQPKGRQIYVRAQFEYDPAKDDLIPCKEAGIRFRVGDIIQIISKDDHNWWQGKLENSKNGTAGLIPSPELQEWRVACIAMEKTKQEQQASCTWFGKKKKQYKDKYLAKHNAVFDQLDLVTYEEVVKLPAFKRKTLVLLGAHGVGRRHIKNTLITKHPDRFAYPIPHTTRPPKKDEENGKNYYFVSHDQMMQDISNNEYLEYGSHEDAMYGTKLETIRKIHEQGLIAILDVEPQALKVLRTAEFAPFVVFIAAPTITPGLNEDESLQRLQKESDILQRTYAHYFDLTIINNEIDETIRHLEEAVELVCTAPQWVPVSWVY
Conditions: Protein CASK; average of three replicates. The gist of the method:
as §1

The target in assay [5] is T5, ~100 representative kinases (Homo sapiens, UniProt P27448).
T5 construct: Recombinant protein kinase domains with a concentration of 2 μM
Conditions: protein MARK3; average of three replicates. The gist of the method: as §1

Assay [6] has as its target T6, ~100 representative kinases (Homo sapiens, UniProt P68400).
T6 construct: Recombinant protein kinase domains with a concentration of 2 μM
Conditions: Protein CK2A1; average of three replicates. The gist of the method:
as §1

Assay [7] has as its target T7, ~100 representative kinases (Homo sapiens, UniProt Q99683).
T7 construct: Recombinant protein kinase domains with a concentration of 2 μM
T7 sequence (Q99683 1-1374): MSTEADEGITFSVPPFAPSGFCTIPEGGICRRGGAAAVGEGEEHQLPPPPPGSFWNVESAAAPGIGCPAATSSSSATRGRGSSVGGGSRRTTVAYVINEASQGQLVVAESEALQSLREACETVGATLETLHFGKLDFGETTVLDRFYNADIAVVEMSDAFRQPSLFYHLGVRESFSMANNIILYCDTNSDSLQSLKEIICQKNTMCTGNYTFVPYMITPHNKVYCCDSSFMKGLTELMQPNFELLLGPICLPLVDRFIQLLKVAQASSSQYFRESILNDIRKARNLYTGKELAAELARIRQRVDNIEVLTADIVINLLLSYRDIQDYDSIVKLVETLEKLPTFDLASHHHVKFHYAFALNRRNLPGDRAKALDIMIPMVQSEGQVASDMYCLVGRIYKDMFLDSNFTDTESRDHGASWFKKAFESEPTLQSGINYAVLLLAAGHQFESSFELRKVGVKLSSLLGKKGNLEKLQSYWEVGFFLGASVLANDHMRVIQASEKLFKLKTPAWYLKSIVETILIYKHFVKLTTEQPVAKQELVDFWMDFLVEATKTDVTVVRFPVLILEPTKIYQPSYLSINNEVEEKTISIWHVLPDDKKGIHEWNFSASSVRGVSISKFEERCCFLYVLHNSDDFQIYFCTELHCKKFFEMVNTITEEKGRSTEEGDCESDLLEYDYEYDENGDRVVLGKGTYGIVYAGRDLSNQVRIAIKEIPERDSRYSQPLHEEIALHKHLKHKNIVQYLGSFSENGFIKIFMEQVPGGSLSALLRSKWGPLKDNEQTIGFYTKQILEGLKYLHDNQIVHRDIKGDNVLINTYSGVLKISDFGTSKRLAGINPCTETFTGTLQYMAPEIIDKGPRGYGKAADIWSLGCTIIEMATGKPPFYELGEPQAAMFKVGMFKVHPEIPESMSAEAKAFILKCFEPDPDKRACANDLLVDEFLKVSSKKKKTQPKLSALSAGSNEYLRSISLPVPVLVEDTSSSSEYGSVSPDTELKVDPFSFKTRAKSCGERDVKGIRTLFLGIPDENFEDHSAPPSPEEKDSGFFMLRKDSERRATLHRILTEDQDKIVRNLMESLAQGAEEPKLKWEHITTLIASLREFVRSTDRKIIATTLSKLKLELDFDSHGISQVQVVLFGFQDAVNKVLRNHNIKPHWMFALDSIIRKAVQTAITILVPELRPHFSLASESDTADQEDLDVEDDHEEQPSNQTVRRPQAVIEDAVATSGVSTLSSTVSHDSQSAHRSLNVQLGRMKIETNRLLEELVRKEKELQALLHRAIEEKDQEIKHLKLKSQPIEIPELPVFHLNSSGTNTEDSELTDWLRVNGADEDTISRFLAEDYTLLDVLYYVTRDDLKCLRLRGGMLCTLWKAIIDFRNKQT
Conditions: protein MAP3K5; average of three replicates. The gist of the method: as §1

Assay [8] has as its target T8, ~100 representative kinases (Homo sapiens, UniProt Q9H2G2).
T8 construct: Recombinant protein kinase domains with a concentration of 2 μM
Conditions: Protein SLK; DSF; average of three replicates. The gist of the method:
as §1

Structures are written as SMILES.

T8 sequence (Q9H2G2 whole entry, the tested form may be a part): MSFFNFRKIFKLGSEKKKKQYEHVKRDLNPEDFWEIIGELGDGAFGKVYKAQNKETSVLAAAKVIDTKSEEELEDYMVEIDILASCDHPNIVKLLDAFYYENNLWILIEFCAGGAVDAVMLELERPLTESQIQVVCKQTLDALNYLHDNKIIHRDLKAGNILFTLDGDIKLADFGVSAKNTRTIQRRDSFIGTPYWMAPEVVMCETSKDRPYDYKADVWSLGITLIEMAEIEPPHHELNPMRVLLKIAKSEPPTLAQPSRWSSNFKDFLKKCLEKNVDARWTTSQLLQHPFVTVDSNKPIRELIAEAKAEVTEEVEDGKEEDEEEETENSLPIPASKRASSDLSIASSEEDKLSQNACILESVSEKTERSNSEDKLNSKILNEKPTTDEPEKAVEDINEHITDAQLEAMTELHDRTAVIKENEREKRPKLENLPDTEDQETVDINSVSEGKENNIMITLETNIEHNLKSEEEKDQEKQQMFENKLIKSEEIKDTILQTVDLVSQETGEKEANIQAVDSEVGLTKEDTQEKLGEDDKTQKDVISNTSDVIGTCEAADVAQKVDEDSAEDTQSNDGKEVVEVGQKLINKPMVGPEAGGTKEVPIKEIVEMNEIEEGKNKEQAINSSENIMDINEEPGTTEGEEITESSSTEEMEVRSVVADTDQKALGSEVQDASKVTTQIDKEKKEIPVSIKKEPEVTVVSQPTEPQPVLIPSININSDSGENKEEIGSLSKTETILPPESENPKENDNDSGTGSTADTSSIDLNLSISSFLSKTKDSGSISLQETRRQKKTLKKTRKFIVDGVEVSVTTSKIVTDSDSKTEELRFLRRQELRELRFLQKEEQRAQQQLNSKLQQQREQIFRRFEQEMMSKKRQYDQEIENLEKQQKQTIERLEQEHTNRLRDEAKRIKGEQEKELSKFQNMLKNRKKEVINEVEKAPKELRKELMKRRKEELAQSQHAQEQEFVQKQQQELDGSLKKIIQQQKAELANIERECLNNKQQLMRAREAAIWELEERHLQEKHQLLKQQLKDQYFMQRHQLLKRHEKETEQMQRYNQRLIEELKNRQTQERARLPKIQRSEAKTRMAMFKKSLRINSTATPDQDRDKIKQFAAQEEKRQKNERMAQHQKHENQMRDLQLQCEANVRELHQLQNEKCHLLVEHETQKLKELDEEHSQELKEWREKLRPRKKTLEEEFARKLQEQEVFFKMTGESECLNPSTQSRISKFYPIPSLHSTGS
T1 sequence (Q9H2X6 whole entry, the tested form may be a part): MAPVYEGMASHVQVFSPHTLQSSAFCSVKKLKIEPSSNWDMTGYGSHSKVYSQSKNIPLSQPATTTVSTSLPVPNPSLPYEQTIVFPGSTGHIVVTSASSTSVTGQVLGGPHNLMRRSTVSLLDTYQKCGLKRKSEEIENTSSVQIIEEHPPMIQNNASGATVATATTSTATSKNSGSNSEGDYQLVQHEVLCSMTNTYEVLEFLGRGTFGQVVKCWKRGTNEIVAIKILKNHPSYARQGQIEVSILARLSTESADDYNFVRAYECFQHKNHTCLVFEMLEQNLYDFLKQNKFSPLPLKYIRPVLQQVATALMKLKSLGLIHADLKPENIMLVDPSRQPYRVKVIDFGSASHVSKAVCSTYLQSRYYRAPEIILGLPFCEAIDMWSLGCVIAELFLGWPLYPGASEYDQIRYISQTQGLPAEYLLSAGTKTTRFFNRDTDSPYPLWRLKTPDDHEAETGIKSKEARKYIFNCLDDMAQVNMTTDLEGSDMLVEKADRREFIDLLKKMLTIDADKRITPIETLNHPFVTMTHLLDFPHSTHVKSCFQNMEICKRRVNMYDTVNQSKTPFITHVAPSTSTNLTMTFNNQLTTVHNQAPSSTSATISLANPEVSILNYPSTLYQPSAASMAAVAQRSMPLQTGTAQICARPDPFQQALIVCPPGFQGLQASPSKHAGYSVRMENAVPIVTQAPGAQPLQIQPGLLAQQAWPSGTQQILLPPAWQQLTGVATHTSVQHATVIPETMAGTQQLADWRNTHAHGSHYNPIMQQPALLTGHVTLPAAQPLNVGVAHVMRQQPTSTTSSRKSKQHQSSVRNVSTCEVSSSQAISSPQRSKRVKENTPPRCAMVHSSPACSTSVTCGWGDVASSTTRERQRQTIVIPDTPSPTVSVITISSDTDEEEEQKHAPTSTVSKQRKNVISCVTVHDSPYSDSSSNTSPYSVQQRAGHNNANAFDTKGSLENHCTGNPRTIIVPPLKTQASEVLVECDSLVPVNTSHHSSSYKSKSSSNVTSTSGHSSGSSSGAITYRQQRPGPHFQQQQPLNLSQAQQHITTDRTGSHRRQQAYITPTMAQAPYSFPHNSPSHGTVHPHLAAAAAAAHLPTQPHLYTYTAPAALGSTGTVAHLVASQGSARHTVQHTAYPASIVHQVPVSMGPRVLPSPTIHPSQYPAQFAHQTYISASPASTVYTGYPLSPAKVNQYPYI
T5 sequence (P27448 whole entry, the tested form may be a part): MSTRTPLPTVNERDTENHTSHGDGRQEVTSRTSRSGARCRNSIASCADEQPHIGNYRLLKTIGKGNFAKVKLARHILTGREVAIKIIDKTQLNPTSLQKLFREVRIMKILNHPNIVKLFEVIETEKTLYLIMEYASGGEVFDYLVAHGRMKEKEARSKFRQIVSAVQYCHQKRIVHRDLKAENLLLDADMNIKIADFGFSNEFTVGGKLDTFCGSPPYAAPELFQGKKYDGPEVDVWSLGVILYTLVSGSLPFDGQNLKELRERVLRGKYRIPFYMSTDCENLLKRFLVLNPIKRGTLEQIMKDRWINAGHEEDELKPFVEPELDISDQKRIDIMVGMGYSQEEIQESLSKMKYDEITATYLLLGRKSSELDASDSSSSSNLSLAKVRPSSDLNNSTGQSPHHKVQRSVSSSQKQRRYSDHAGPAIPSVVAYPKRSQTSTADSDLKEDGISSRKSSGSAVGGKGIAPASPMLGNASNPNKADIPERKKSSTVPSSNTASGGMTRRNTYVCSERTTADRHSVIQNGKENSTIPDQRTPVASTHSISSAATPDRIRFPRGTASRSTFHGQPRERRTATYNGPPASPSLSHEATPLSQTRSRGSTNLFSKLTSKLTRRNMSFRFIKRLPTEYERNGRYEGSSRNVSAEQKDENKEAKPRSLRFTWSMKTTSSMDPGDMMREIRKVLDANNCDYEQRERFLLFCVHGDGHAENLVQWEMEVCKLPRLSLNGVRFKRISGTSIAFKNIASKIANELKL
T2 sequence (P21802 22-821): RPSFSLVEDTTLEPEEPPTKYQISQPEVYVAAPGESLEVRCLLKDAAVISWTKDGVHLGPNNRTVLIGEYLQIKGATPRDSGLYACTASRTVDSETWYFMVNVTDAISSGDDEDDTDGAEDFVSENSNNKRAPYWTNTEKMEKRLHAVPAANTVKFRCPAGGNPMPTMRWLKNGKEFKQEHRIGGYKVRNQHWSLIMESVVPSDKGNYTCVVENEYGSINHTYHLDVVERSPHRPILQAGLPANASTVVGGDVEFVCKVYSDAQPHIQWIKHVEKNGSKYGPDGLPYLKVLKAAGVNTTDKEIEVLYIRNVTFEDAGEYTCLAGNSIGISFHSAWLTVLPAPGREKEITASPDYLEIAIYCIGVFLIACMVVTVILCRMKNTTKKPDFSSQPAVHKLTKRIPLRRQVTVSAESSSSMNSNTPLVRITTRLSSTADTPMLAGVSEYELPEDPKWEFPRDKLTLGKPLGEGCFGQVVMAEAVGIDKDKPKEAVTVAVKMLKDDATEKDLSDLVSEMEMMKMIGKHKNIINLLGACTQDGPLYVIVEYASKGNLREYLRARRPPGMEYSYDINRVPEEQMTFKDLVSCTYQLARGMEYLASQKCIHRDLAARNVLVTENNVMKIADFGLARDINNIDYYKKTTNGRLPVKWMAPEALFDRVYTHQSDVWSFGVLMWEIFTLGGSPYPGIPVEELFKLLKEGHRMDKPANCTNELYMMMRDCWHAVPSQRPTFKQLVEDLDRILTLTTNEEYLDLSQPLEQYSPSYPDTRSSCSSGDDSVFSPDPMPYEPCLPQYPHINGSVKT
T6 sequence (P68400 whole entry, the tested form may be a part): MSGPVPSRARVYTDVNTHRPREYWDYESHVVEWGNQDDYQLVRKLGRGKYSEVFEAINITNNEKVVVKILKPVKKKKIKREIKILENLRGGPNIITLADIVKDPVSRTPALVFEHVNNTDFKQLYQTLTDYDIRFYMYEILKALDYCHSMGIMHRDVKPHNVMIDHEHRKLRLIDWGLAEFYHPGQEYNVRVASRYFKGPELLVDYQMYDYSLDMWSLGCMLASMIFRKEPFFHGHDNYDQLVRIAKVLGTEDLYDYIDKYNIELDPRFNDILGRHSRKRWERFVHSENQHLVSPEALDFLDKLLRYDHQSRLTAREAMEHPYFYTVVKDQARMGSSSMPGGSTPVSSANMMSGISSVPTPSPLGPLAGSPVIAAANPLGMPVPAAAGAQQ

On to `Cc1ccc(C(=O)Nc2ccc(CN3CCN(C)CC3)c(C(F)(F)F)c2)cc1C#Cc1c[nH]c2ncnc(N3CCOCC3)c12` [Compound 1], for which the dTm in assay [1] is on record as 4.31 K; in assay [2], 4.16 K; in assay [3], 1.10 K; in assay [4], 1.18 K; in assay [5], 1.49 K; in assay [6] it was 2.53 K. Further, the dTm in assay [7] is recorded as 6.86 K.

`O=C(Nc1ccc(F)cc1)C1(C(=O)Nc2cccc(-c3c[nH]c4ncnc(N5CCOCC5)c34)c2)CC1` [Compound 2]: the dTm is listed as 9.65 K in assay [1]; 2.43 K in assay [2]; 6.64 K in assay [8]; -1.78 K in assay [3]; 0.30 K in assay [4]; 4.79 K in assay [5]. The dTm in assay [6] was determined as 0.00 K; in assay [7] it was 3.63 K.

For the compound `O=C(Nc1cccc(-c2c[nH]c3ncnc(N4CCOCC4)c23)c1)c1cccn(-c2ccc(F)cc2)c1=O` [Compound 4], the dTm in assay [1] is reported as 8.43 K; in assay [2], 5.86 K; in assay [8] it was 6.46 K; in assay [3], -1.83 K; in assay [4] it was -0.18 K; in assay [5], 4.45 K. Moreover, the values for the dTm in assay [6] and in assay [7] were 1.35 K and 4.59 K, respectively.

For the compound `Cc1cc(NC(=O)C2(C(=O)Nc3ccc(F)cc3)CC2)cc(-c2c[nH]c3ncnc(N4CCOCC4)c23)c1` [Compound 6], the dTm in assay [1] worked out at 0.87 K; in assay [2] it was 1.97 K; in assay [8] it was 4.64 K; in assay [3] it was 1.69 K; in assay [4], 0.76 K; in assay [5] it was 4.35 K. Further, the figures for the dTm in assay [6] and in assay [7] were 0.12 K and 4.24 K, respectively.

Take `O=C(Nc1cccc(-c2c[nH]c3ncnc(N4CCOCC4)c23)c1)C1(C(=O)Nc2cccc3c2CCC3)CC1` [Compound 11]: the dTm in assay [1] is on record as 1.82 K; in assay [2], 2.75 K; in assay [8], 0.75 K; in assay [3], 1.36 K; in assay [4], -5.15 K; in assay [5], 3.89 K. The dTm is listed as -1.70 K in assay [6] and 3.33 K in assay [7].

In the case of `O=C(Nc1ccccc1)C1(C(=O)Nc2cccc(-c3c[nH]c4ncnc(N5CCOCC5)c34)c2)CC1` [Compound 12], the dTm in assay [1] was 7.64 K; in assay [2], 2.56 K; in assay [8], 5.53 K; in assay [3], -1.64 K; in assay [4] it was 0.25 K; in assay [5], 4.89 K. In addition, the figures for the dTm in assay [6] and in assay [7] were 0.00 K and 2.42 K, respectively.

With `O=C(Nc1ccc(Cl)cc1)C1(C(=O)Nc2cccc(-c3c[nH]c4ncnc(N5CCOCC5)c34)c2)CC1` [Compound 13], the dTm in assay [1] worked out at 10.73 K; in assay [2] it was 3.14 K; in assay [8], 7.45 K; in assay [3], 0.19 K; in assay [4], 0.70 K; in assay [5] it was 7.72 K. The dTm in assay [6] came out at 0.00 K; in assay [7] it was 4.01 K.

Take `Cc1ccc(NC(=O)C2(C(=O)Nc3cccc(-c4c[nH]c5ncnc(N6CCOCC6)c45)c3)CC2)cc1` [Compound 14]: the dTm is listed as 8.21 K in assay [1]; 1.78 K in assay [2]; 5.25 K in assay [8]; -1.63 K in assay [3]; 0.19 K in assay [4]; 4.90 K in assay [5]. Moreover, the dTm in assay [6] is listed as 1.79 K; in assay [7], 1.35 K.

In the case of `CCc1ccc(NC(=O)C2(C(=O)Nc3cccc(-c4c[nH]c5ncnc(N6CCOCC6)c45)c3)CC2)cc1` [Compound 15], the dTm in assay [1] was 8.10 K; in assay [2], 2.28 K; in assay [8], 5.04 K; in assay [3], -2.17 K; in assay [4] it was 0.36 K; in assay [5], 6.20 K. The dTm in assay [6] came out at 2.19 K; in assay [7], 1.27 K.

As to `COc1ccc(NC(=O)C2(C(=O)Nc3cccc(-c4c[nH]c5ncnc(N6CCOCC6)c45)c3)CC2)cc1` [Compound 16], the dTm is recorded as 6.00 K in assay [1]; 1.54 K in assay [2]; 1.57 K in assay [8]; -2.77 K in assay [3]; 0.15 K in assay [4]; 2.45 K in assay [5]. Besides, the results for the dTm in assay [6] and in assay [7] were 1.00 K and 0.46 K, respectively.

Take `Cc1ccc(C(=O)Nc2ccc(CN3CCN(C)CC3)c(C(F)(F)F)c2)cc1C#Cc1cnc2cccnn12` [Ponatinib, reference compound]: the dTm in assay [2] is given as 12.49 K.

Consider `CNC(=O)c1cc(Oc2ccc(NC(=O)Nc3cc(C(C)(C)C)nn3-c3ccc4ncccc4c3)c(F)c2)ccn1` [Rebastinib, reference compound], for which the dTm in assay [2] was 10.35 K; in assay [8], 14.21 K; in assay [3], 3.35 K; in assay [4], -12.03 K; in assay [5], 0.56 K; in assay [7], 1.38 K.

On to `CN[C@@H]1C[C@H]2O[C@@](C)([C@@H]1OC)n1c3ccccc3c3c4c(c5c6ccccc6n2c5c31)C(=O)NC4` [Staurosporine], for which the results for the dTm in assay [1] and in assay [3] were 4.23 K and 12.09 K, respectively.
